Data published in patent publication US8981066B2, “Epigenetic mechanisms related to DNA damage and aging” (Buck Institute for Research on Aging, priority 2011, dated 2015).

Legend:
[1] = test system: meK172meK180 methylated form of H1.0 in hADSC cells; assay: H1.0 meK172meK180 methylation and localisation in hADSCs upon bleomycin genotoxic stress (immunostaining, Western blot); assay type: cell-based, human; details: for nuclear meK172meK180 H1 methylation (initial DNA damage response): hADSC, bleomycin 50 μg/ml
Procedure: FIGS. 4A-4C illustrate the dynamics of the meK172meK180 methylation of hi stone H1.0 upon genotoxic stress-induced senescence of human adult stem (hADSC). FIG. 4A: Cells we treated with 50 μg/ml bleomycin for 3 hrs. Drug was replaced with normal DMEM12 media and cells were assessed for ^meK172^meK180 histone H1 methylation and DNA damage γH2AX at different time points (panels A, B, and C) by immunohistochemistry. Cellular senescence was estimated by senescence-associated β-Gal activity (phase-contrast). […] 1, 2, 3—represent samples of three independent hADSCs cultures used in western blot and qPCR experiments.
Cellular senescence is believed to be associated with accumulation of persistent DNA damage and activation of DNA damage response (DDR) pathways. In the DDR pathway, some chromatin modifications seem to play a critical role in marking lesions or recruiting factors involved in repair, thus facilitating the function of repair proteins. The best characterized in this context are histone H2AX and H1 phosphorylation events.

[2] = test system: H1.0 gene; assay: H1.0 gene expression in hADSCs (qPCR); assay type: cell-based, human; details: bleomycin-treated hADSCs
Procedure: FIGS. 4A-4C illustrate the dynamics of the meK172meK180 methylation of hi stone H1.0 upon genotoxic stress-induced senescence of human adult stem (hADSC). FIG. 4A: Cells we treated with 50 μg/ml bleomycin for 3 hrs. Drug was replaced with normal DMEM12 media and cells were assessed for ^meK172^meK180 histone H1 methylation and DNA damage γH2AX at different time points (panels A, B, and C) by immunohistochemistry. Cellular senescence was estimated by senescence-associated β-Gal activity (phase-contrast). FIGS. 4B and 4C show the results of Western blots using H1.0 methyl antibodies in crude cellular extracts from human ADSCs treated with Rapamycin (FIG. 4B) or rampamyucin and bleomycin (FIG. 4C). […] However, acute DDR results in transcriptional up regulation of H1.0 gene expression that could be influenced by TOR pathway suppression. 1, 2, 3—represent samples of three independent hADSCs cultures used in western blot and qPCR experiments.
Cellular senescence is believed to be associated with accumulation of persistent DNA damage (Sedelnikova et al. (2008) Aging Cell 7: 89-100; Rodier et al. (2009) Nat. Cell Biol., 11: 973-979) and activation of DNA damage response (DDR) pathways (Wang et al. (2011) Cell Cycle 10: 3016-3030; Sedelnikova et al. (2004) Nat. Cell Biol., 6: 168-170; Herbig et al. (2004) Molecular Cell, 14: 501-513; d'Adda et al. (2003) Nature 426: 194-198). […]

bleomycin
localisation of met H1.0 upon genotoxic-stress induced senescence ([1]; bleomycin-treated hADSCs): eviction of met H1.0 into the cytoplasm | nuclear meK172meK180 H1 methylation (initial DNA damage response) [1]: triggers | nuclear meK172meK180 H1 methylation (initial DNA damage response) ([1]; listed as bleomycine): rapid and robust nuclear H1.0 methylation | H1.0 transcription upon acute DNA damage [2]: drastic increase
